Laboratory results published in patent US7405240B2, “Substituted cyclopentanes or cyclopentanones as therapeutic agents” (Allergan, Inc., priority 2006, dated 2008).

Columns and labels:
[1] = target: T1, hEP2 (Homo sapiens, UniProt P43116); assay: Competition binding, [3H]PGE2, human EP2 receptors; parameters: expressed in transfected cells; host or cells: HEK 293; details: [3H]PGE2, HEK 293 cells stably expressing human EP2; read-out: hEP2 Ki
Description: Competition binding experiments were performed in a medium containing Hank's balanced salt solution, Hepes 20 mM, pH 7.3, membranes (˜60 μg protein) or 2×10^5 cells from HEK 293 cells stably expressing human EP2 receptors, [^3H]PGE2 (10 nM) and various concentrations of test compounds in a total volume of 300 μl. Reaction mixtures were incubated at 23° C. for 60 min, and were filtered over Whatman GF/B filters under vacuum. Filters were washed three times with 5 ml ice-cold buffer containing 50 mM Tris/HCl (pH 7.3). Non-specific binding was estimated in the presence of excess unlabeled PGE2 (10 μM). Binding data fitted to the binding model for a single class of binding sites, using nonlinear regression analysis. IC50 values thus obtained were converted to Ki using the equation of Ki=(IC50/(1+[L]/KD) where [L] represents PGE2 concentration (10 nM) and KD the dissociation constant for [^3H]PGE2 at human EP2 receptors (40 nM).
(§1) HEK-293 cells stably expressing the human or feline FP receptor, or EP1, EP2, or EP4 receptors were washed with TME buffer, scraped from the bottom of the flasks, and homogenized for 30 sec using a Brinkman PT 10/35 polytron. TME buffer was added to achieve a final 40 ml volume in the centrifuge tubes (the composition of TME is 100 mM TRIS base, 20 mM MgCl2, […]; 10N HCl is added to achieve a pH of 7.4).
(§2) The cell homogenate was centrifuged at 19000 r.p.m. for 20 min at 4° C. using a Beckman Ti-60 rotor. The resultant pellet was resuspended in TME buffer to give a final 1 mg/ml protein concentration, as determined by Biorad assay. Radioligand binding competition assays vs. [3H-] 17-phenyl PGF2, (5 nM) were performed in a 100 μl volume for 60 min. Binding reactions were started by adding plasma membrane fraction. The reaction was terminated by the addition of 4 ml ice-cold TRIS-HCl buffer and rapid filtration through glass fiber GF/B filters using a Brandel cell harvester. The filters were washed 3 times with ice-cold buffer and oven dried for one hour.
(§3) [^3H-] PGE2 (specific activity 180 Ci mmol) was used as the radioligand for EP receptors. [^3H] 17-phenyl PGF2, was employed for FP receptor binding studies. Binding studies employing EP1, EP2, EP4 and FP receptors were performed in duplicate in at least three separate experiments. A […] assay volume was used. Incubations were for 60 min at 25° C. and were terminated by the addition of 4 ml of ice-cold 50 mM TRIS-HCl, followed by rapid filtration through Whatman GF/B filters and three additional 4 ml washes in a cell harvester (Brandel). Competition studies were performed using a final concentration of 5 nM [^3H]-PGE2, or 5 nM [^3H] 17-phenyl PGF2, and non-specific binding determined with 10^−5M of unlabeled PGE2, or 17-phenyl PGF2α, according to receptor subtype studied.

[2] = target: T1, hEP2; assay: FLIPR calcium signal, hEP2; assay type: cell-based; parameters: expressed in transfected cells; host or cells: HEK-293(EBNA); details: HEK-293(EBNA) cells expressing hEP2/Gqs5
Description: (§4) Methods for FLIPR™ Studies
(§5) HEK-293(EBNA) cells, stably expressing one type or subtype of recombinant human prostaglandin receptors (prostaglandin receptors expressed: hDP/Gqs5; hEP1; hEP2/Gqs5; hEP3A/Gqi5; hEP4/Gqs5; hFP; hIP; hTP), were cultured in 100 mm culture dishes in high-glucose DMEM medium containing 10% fetal bovine serum, 2 mM 1-glutamine, 250 μg/ml geneticin (G418) and 200 μg/ml hygromycin B as selection markers, and 100 units/ml penicillin G, 100 μg/ml streptomycin and 0.25 μg/ml amphotericin B.
(§6) Cells were seeded at a density of 5×10^4 cells per well in Biocoat® Poly-D-lysine-coated black-wall, clear-bottom 96-well plates (Becton-Dickinson) and allowed to attach overnight in an incubator at 37° C. Cells were then washed two times with HBSS-HEPES buffer (Hanks Balanced Salt Solution without bicarbonate and phenol red, 20 mM HEPES, pH 7.4) using a Denley Cellwash plate washer (Labsystems). After 45 minutes of dye-loading in the dark, using the calcium-sensitive dye Fluo-4 AM at a final concentration of 2 μM, plates were washed four times with HBSS-HEPES buffer to remove excess dye leaving 100 μl in each well. Plates were re-equilibrated to 37° C. for a few minutes.
(§7) Cells were excited with an Argon laser at 488 nm, and emission was measured through a 510-570 nm bandwidth emission filter (FLIPR™, Molecular Devices, Sunnyvale, Calif.). Drug solution was added in a 50 μl volume to each well to give the desired final concentration. The peak increase in fluorescence intensity was recorded for each well. On each plate, four wells each served as negative (HBSS-HEPES buffer) and positive controls (standard agonists: BW245C (hDP); PGE2 (hEP1; hEP2/Gqs5; hEP3A/Gqi5; hEP4/Gqs5); PGF2α (hFP); carbacyclin (hIP); U-46619 (hTP), depending on receptor). The peak fluorescence change in each drug-containing well was then expressed relative to the controls.
(§8) Compounds were tested in a high-throughput (HTS) or concentration-response (CoRe) format. In the HTS format, forty-four compounds per plate were examined in duplicates at a concentration of 10^−5 M. To generate concentration-response curves, four compounds per plate were tested in duplicates in a concentration range between 10^−5 and 10^−11 M. The duplicate values were averaged. In either, HTS or CoRe format each compound was tested on at least 3 separate plates using cells from different passages to give an n≧3.

[3] = target: T2, hEP4 (Homo sapiens, UniProt P35408); assay: FLIPR calcium signal, hEP4; assay type: cell-based; parameters: expressed in transfected cells; host or cells: HEK-293(EBNA); details: HEK-293(EBNA) cells expressing hEP4/Gqs5
T2 sequence (P35408 whole entry): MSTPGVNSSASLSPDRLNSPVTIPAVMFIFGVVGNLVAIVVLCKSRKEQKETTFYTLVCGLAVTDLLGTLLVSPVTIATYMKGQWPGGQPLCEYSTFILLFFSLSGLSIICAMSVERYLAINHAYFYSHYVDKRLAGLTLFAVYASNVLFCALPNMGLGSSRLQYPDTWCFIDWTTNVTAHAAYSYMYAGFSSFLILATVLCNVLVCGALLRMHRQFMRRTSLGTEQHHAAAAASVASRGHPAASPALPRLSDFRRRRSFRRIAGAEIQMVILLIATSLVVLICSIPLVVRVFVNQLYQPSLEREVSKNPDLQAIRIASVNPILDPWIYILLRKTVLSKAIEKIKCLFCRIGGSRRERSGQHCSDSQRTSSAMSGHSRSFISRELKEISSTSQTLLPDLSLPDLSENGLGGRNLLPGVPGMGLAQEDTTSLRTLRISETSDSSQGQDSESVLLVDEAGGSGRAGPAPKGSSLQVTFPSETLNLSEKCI
Description: as §4, §5, §6, §7, §8

[4] = target: T2, hEP4; assay: Radioligand binding, EP4 receptor; parameters: expressed in transfected cells; host or cells: HEK-293; details: [3H]PGE2, HEK-293 cells expressing EP4
Description: as §1, §2, §3

[5] = target: T1, hEP2; assay: cAMP assay, hEP2; assay type: cell-based

T1 sequence (P43116 whole entry): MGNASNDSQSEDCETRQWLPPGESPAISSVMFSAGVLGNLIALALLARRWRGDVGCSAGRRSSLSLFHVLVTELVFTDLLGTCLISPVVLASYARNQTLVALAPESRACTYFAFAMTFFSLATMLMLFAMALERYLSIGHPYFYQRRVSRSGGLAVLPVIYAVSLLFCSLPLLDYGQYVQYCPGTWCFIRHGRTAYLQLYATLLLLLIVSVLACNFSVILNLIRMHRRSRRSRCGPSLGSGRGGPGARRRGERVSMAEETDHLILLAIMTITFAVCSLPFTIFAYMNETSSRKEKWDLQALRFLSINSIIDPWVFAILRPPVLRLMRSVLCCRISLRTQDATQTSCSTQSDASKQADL

Ki [1] [nM] | EC50 [2] [nM] | EC50 [3] [nM] | Ki [4] [nM] | EC50 [5] [nM] | Compound
603 | 111 | 1170 | 5060 | 24 | O=C(O)CCC/C=C\C[C@@H]1[C@@H](COc2cccc(O)c2)[C@H](O)C[C@H]1Cl [Example 30, (Z)-7-[(1R,2S,3R,5R)-5-Chloro-3-hydroxy-2-(3-hydroxy-phenoxymethyl)-cyclopentyl]-hept-5-enoic acid]
1990 | > 10000 | > 10000 | – | – | O=C(O)CCC/C=C\C[C@@H]1[C@@H](COc2ccc(CCO)cc2)[C@H](O)C[C@H]1Cl [Example 63, (Z)-7-{(1R,2S,3R,5R)-5-Chloro-3-hydroxy-2-[4-(2-hydroxy-ethyl)-phenoxymethyl]-cyclopentyl}-hept-5-enoic acid]
163 | 82 | 2740 | 351 | 28 | O=C(O)CCCCCC[C@@H]1[C@@H](COc2cccc3ccccc23)[C@H](O)C[C@H]1Cl [Example 20, (Z)-7-[(1R,2S,3R,5R)-5-Chloro-3-hydroxy-2-(naphthalen-1-yloxymethyl)-cyclopentyl]-heptanoic acid]
2 | 29 | 5890 | 491 | 0.7 | O=C(O)CCC/C=C\C[C@@H]1[C@@H](COc2ccc(Cl)c3ccccc23)[C@H](O)C[C@H]1Cl [Example 40, (Z)-7-[(1R,2S,3R,5R)-5-Chloro-2-(4-chloro-naphthalen-1-yloxymethyl)-3-hydroxy-cyclopentyl]-hept-5-enoic acid]
3910 | 5980 | > 10000 | – | 128 | O=C(O)CCC/C=C\C[C@@H]1[C@@H](COc2ccccc2CCO)[C@H](O)C[C@H]1Cl [Example 61, (Z)-7-{(1R,2S,3R,5R)-5-Chloro-3-hydroxy-2-[2-(2-hydroxy-ethyl)-phenoxymethyl]-cyclopentyl}-hept-5-enoic acid]
274 | 245 | 3720 | 1680 | 20 | COc1cccc(OC[C@@H]2[C@@H](C/C=C\CCCC(=O)O)[C@H](Cl)C[C@H]2O)c1 [Example 28, (Z)-7-[(1R,2S,3R,5R)-5-Chloro-3-hydroxy-2-(3-methoxy-phenoxymethyl)-cyclopentyl]-hept-5-enoic acid]
61 | 301 | 3420 | 507 | 27 | O=C(O)CCC/C=C\C[C@@H]1[C@@H](COc2ccc3ccccc3c2)[C@H](O)C[C@H]1Cl [Example 17, (Z)-7-[(1R,2S,3R,5R)-5-Chloro-3-hydroxy-2-(naphthalen-2-yloxymethyl)-cyclopentyl]-hept-5-enoic acid]
64 | 520 | 10600 | 497 | 2 | O=C(O)CCC/C=C\C[C@@H]1[C@@H](COc2cc(Cl)cc(CO)c2)[C@H](O)C[C@H]1Cl [Example 65, (Z)-7-[(1R,2S,3R,5R)-5-Chloro-2-(3-chloro-5-hydroxymethyl-phenoxymethyl)-3-hydroxy-cyclopentyl]-hept-5-enoic acid]
172 | 51 | > 10000 | 1100 | 2.4 | Cc1ccc(C)c(OC[C@@H]2[C@@H](C/C=C\CCCC(=O)O)[C@H](Cl)C[C@H]2O)c1 [Example 34, (Z)-7-[(1R,2S,3R,5R)-5-Chloro-2-(2,5-dimethyl-phenoxymethyl)-3-hydroxy-cyclopentyl]-hept-5-enoic acid]
4320 | 5580 | > 10000 | > 10000 | 3350 | Cc1cccc(C)c1OC[C@@H]1[C@@H](C/C=C\CCCC(=O)O)[C@H](Cl)C[C@H]1O [Example 35, (Z)-7-[(1R,2S,3R,5R)-5-Chloro-2-(2,6-dimethyl-phenoxymethyl)-3-hydroxy-cyclopentyl]-hept-5-enoic acid]
303 | 26 | 449 | 5010 | 37 | O=C(O)CCC/C=C\C[C@@H]1[C@@H](COc2ccccc2Cl)[C@H](O)C[C@H]1Cl [Example 21, (Z)-7-[(1R,2S,3R,5R)-5-Chloro-2-(2-chloro-phenoxymethyl)-3-hydroxy-cyclopentyl]-hept-5-enoic acid]
89 | 453 | 6310 | 973 | 65 | O=C(O)CCCCCC[C@@H]1[C@@H](COc2ccc3ccccc3c2)[C@H](O)C[C@H]1Cl [Example 18, (Z)-7-[(1R,2S,3R,5R)-5-Chloro-3-hydroxy-2-(naphthalen-2-yloxymethyl)-cyclopentyl]-heptanoic acid]
161 | 1970 | > 10000 | – | 18 | O=C(O)CCC/C=C\C[C@@H]1[C@@H](COc2cccc(CCO)c2)[C@H](O)C[C@H]1Cl [Example 62, (Z)-7-{(1R,2S,3R,5R)-5-Chloro-3-hydroxy-2-[3-(2-hydroxy-ethyl)-phenoxymethyl]-cyclopentyl}-hept-5-enoic acid]
620 | 277 | 7250 | – | 72 | Cc1ccc(OC[C@@H]2[C@@H](C/C=C\CCCC(=O)O)[C@H](Cl)C[C@H]2O)c(C)c1 [Example 33, (Z)-7-[(1R,2S,3R,5R)-5-Chloro-2-(2,4-dimethyl-phenoxymethyl)-3-hydroxy-cyclopentyl]-hept-5-enoic acid]

Compound | Ki [1] [nM] | EC50 [2] [nM] | EC50 [3] [nM] | Ki [4] [nM] | EC50 [5] [nM]
CC(=O)OCc1cc(Cl)cc(OC[C@@H]2[C@@H](C/C=C\CCCC(=O)O)[C@H](Cl)C[C@H]2O)c1 [Example 64, (Z)-7-[(1R,2S,3R,5R)-2-(3-Acetoxymethyl-5-chloro-phenoxymethyl)-5-chloro-3-hydroxy-cyclopentyl]-hept-5-enoic acid] | 65 | 1110 | 7450 | 381 | 6.5
